Here are results for one compound from paper PMC7570852, “Ruthenium(II)/(III) DMSO-Based Complexes of 2-Aminophenyl Benzimidazole with In Vitro and In Vivo Anticancer Activity” (Molecules, 2020).

Data set [1] has as its system Ehrlich ascites carcinoma (EAC). The data set is described as follows: EAC mouse model: abdominal size and peritoneal angiogenesis. Format: in vivo, mice. Particulars: for mean abdominal circumference: EAC mice. Here is the method:
The mice were divided into the following eight groups (10 mice in each group): • Control group: Mice were intraperitoneally injected with a vehicle (2% DMSO + sterile saline) for 12 days. • I, II, and III control groups: Healthy normal mice were intraperitoneally injected with 6, 12, and 18 mg/kg of complex (2), respectively, for 12 days. • EAC group: Mice were intraperitoneally injected by a single dose of 2.5 × 10^6 viable Ehrlich ascites carcinoma (EAC) cells in PBS. In brief, EAC cells were withdrawn from the EAC mouse’s intraperitoneal cavity, washed, and centrifuged three times with sterile saline. Then, the pellets were suspended in sterile PBS and counted by the trypan blue exclusion assay, which confirmed that the viability of the cells was 98%. • I, II, and III treated groups: Firstly, 30 healthy mice were intraperitoneally injected with a single dose of 2.5 × 10^6 viable EAC cells. After one day; the mice were divided into I, II, and III treated groups (10 mice each group), intraperitoneally injected with 6, 12, and 18 mg/kg Ru(III) complex, respectively, for 12 days.
The animals were monitored for EAC growth by measuring abdominal size. At the end of the experiment all animals were fasted overnight then sacrificed. Serum samples were collected to study the biological parameters such as liver and kidney function as well as antioxidant enzyme activity. Liver samples from each group were frozen immediately in liquid nitrogen for molecular analysis.

Data set [2] concerns human breast cancer (MCF7) cells. Kind of data set: MTT cell viability assay, MCF7. Type of data set: cell-based. Particulars: 24 h. Here is the method:
The cytotoxic effect of the Hapbim ligand and its complexes (1) and (2) on human breast cancer (MCF7), human colorectal cancer (Caco2), and human normal liver (THLE-2) cell lines was evaluated by the MTT assay. The cells were cultured in a 96-well plate (1 × 10^4 cells/well, 100 μL/well) containing DMEM medium provided with 10% fetal bovine serum, and 1% penicillin/streptomycin. Then, the cells were incubated at 37 °C for 24 h in a CO2 incubator under 5% CO2, 95% air until reaching a confluence of 70–80%. A 20 μL volume of each compound at different concentrations (from 5 to 400 μM for the cancer cell and from 600 to 1000 μM for the normal cells) was added and the cells were re-incubated for a further 24 h. After the incubation period, the cells were incubated again with 5 mg/mL of MTT for 4 h and then the medium was replaced with 100 μL DMSO and vortexed for 20 min. Finally, the absorbance was recorded at 570 nm using the microplate reader. […] To calculate the cell inhibition percentage, the following equation was used:% Cell inhibition = 100 − % cell viability ((At − Ab)/(Ac − Ab)) × 100%)(4) where At is the absorbance value of tested compound; Ab is the absorbance value of blank; Ac is the absorbance value of the control.

In data set [3] the test system is CT DNA (EB-DNA adduct). Kind of data set: Ethidium bromide (EB-DNA) competitive fluorescence assay. Type of data set: binding, calf. The following applies: [DNA] = [EB] = 5 μM. Here is the method: The binding affinity of the metal complexes towards CT DNA was evaluated using competitive fluorescence studies. CT DNA pretreated with ethidium bromide (EB) ([DNA] = [EB] = 5 μM) in Tris-HCl/NaCl buffer (pH = 7.2) was incubated with the complexes in concentrations of 0–90 μM. […] The quenching of EB-DNA adduct fluorescence was followed by monitoring the emission spectra in the wavelength range of 530–650 nm. Upon addition of the metal complexes to the EB-DNA adduct, the quenching binding constant (Kq) at λ = 585 nm is determined from the Stern-Volmer Equation (2):I0/I = 1 + Kq[Q](2) where I0 and I are the fluorescence intensities of EB-DNA in the […] of the metal complexes, respectively, [Q] is the concentration of the tested compounds, and Kq is the quenching constant calculated from the slope of the straight line obtained from plotting Io/I vs. [Q]. In addition, the apparent binding constant can be calculated from Equation (3):KEB[EB] = Kapp[Q](3) where KEB = 1 × 10^7 M^−1 [EB] is the ethidium bromide concentration (5 μM) and [Q] is the concentration of the quencher that provides a 50% intensity reduction of the initial EB-DNA adduct.

Data set [4] has as its system Caco2 cells. The data set is described as follows: Cell-cycle analysis by flow cytometry (PI), Caco2. The following applies: Caco2, 117.6 μg/mL, 24 h. Type of data set: cell-based, human. Here is the method:
The Ru(III) complex (2) (117.6 μg/mL) was added to MCF7 and Caco2 cells at a confluence of 70–80% and incubated for 24 h (in a CO2 incubator). The cells were then digested with warm trypsin-EDTA + warm PBS-EDTA (0.25%) (500 + 500 μL) with incubation for 10 min at 37 °C. The mixture was centrifuged (450 rpm) for 5 min, then the supernatant was removed. The mixture was washed twice in warm PBS and the cell pellet was re-suspended in 500 µl warm PBS, centrifuged and the supernatant decanted. A volume of 150 μL PBS + 350 μL ice-cold 70% ethanol was added and incubated at 4 °C for 1 h to fix the cells. To remove ethanol, the mixture was centrifuged at 350 rpm for 10 min and then the supernatant was removed. The mixture was washed twice in warm PBS and the cells were re-suspended in 500 μL of warm PBS, centrifuged, and the supernatant was removed. The cells were resuspended in 100 μL PBS and stored at 4 °C for up to four days. In darkness, the cells were stained with 100 µL of propidium iodide (PI) solution + 50 µL RNase A solution (100 µg/mL) and incubated in darkness for 30–60 min. The stained cells were read in an Attune flow cytometer (Applied Bio-system, Foster City, CA, USA).
A general note: Flow cytometry measures light scatter and fluorescence of single cells or particles in a stream.

The subject of data set [5] is caspase 3 gene expression. Kind of data set: Real-time qPCR of liver tissue, caspase 3. Type of data set: in vivo. The following applies: liver tissue of EAC-bearing mice, vs untreated. Here is the method: (§1) RNA was isolated from liver tissues using a RNeasy Mini kit. The integrity and purity of RNA were assessed by 1% agarose gel electrophoresis and nanodrop, respectively. The obtained RNA was reverse transcribed to yield cDNA using Quantiscript reverse transcriptase. Specific primers for Bax, caspase 3, and Bcl2 genes in addition to the housekeeping gene, β actin were designed by the Primer 3 web-based tool based on the published mice sequences (Table 5). Quantitative real-time PCR (qPCR) was performed using QuantiTect SYBR Green qPCR Master Mix in a StepOnePlus real-time PCR system and the melting curve condition and fold change calculation were done as previously described.

A short description of data set [6]: Maximum tolerated dose in healthy mice. Type of data set: in vivo. Here is the method:
These mice were examined daily for any sign of toxicity and weighed every two days. […] Therefore, doses of 6, 12, and 18 mg/kg were used in subsequent experiments.

Data set [7] concerns Bax gene expression. The data set is described as follows: Real-time qPCR of liver tissue, Bax. Type of data set: in vivo. The following applies: liver tissue of EAC-bearing mice, vs untreated. Here is the method: as §1
(In general: Real-time PCR tracks product formation cycle by cycle.)

The IC50 is the concentration that gives 50% inhibition. On to `CS(C)=O.Nc1ccccc1-c1nc2ccccc2[nH]1.O.[Cl][Ru]([Cl])[Cl]` [(2), [Ru(III)Cl3(DMSO)(Hapbim)]·H2O], for which the peritoneal angiogenesis entry in data set [1] (EAC mice, 6, 12, 18 mg/kg treated groups vs EAC group) is given as “decreased in a dose-dependent manner”. The mean abdominal circumference in data set [1] (I (6 mg/kg) i.p. for 12 days, untreated EAC 13.20 ± 0.03, control 7.06 ± 0.18) turned out to be 9.6 ± 0.2 cm; in data set [1] (II (12 mg/kg) i.p. for 12 days) it was 7.30 ± 0.03 cm; in data set [1] (III (18 mg/kg) i.p. for 12 days), 7.10 ± 0.03 cm. The “IC50 MCF-7” value in data set [2] came out at 118 ± 8 mg/L. Moreover, the IC50 in data set [2] (read-out: IC50 MCF-7) turned out to be 230 ± 10 µM. Further, the “Kapp (apparent binding constant)” value in data set [3] (KEB = 1 × 10^7 M^−1) is 1.72 ± 0.28 × 10^7 M^−1. Further, the “Kq (quenching constant)” value in data set [3] (Stern-Volmer, 585 nm) was 8.64 ± 0.15 × 10^3 M^−1. Further, the “cells in G0/G1 phase” value in data set [4] is on record as 18%. Moreover, the “cells in G2/M phase” value in data set [4] is 62%. Also, the “cells in S phase” value in data set [4] was 20%. In data set [5], the “caspase 3 mRNA level” value was “significant increases”. Further, the “toxicity on repeated dosing” value in data set [6] (healthy mice, 6, 12 and 18 mg/kg i.p., until the 12th day) was “No weight loss or signs of toxicity”; in data set [6] (healthy mice, 30 and 40 mg/kg i.p.) it was “toxic after 3-5 days and all the animals were dead on the fifth day”. In data set [7], the “Bax mRNA level” value is given as “significant increases”.
